Experimental data taken from patent publication US8513437B2, “Pyrrolidino-1,4-naphthoquinone deriviatives and their use for treating malignancies and cardiovascular diseases” (Ben Gurion University of the Negev Research and Development …, priority 2004, dated 2013).
“Also recorded” adds a separate entry of the source. Where two headings read alike, the source gives them in different places.

Assays:
[1] = system: primary cardiomyocytes derived from neonatal rats; test: Cell viability (XTT) of cardiomyocytes; assay type: cell-based, rat; settings: for IC50: 24 h incubation with compound, then XTT 4 h, read-out: ID50 Cardiomyocytes; for injury of cardiomyocytes at concentrations killing VSM cells: cardiomyocytes versus VSM cells
Method: (§1) Three main cell types of the cardiovascular system were evaluated: primary cardiomyocytes derived from neonatal rats primary vascular smooth muscle (VSM) cells derived from rat aorta and human umbilical vein endothelial cells. Furthermore, human colon carcinoma HT29 cells and BL6-8 melanoma cells were evaluated as representative cancer cells. The cells were prepared as described previously in Etzion S. et al.: JMCC 33 (2001) 1321-30; Granot Y. et al.: JBC 268 (1993) 9564-9; the ATCC (the Global Bioresource Center™); and Assa-Kunik et al.: J. Immunol. 171 (2003) 2945-52.
(§2) The cell viability was examined using the XTT method following kit instructions (Biological Industry, Israel). The assay is based on the ability of metabolic active cells to reduce the tetrazolium salt XTT to orange colored compound of formazan. The dye formed is water soluble and the dye intensity can be read with spectrophotometer at 450-500 nm. The intensity of the dye is proportional to the number of metabolic active cells.
(§3) The viability of the cells was measured as described above. Briefly, cells were incubated with the compounds for 24 h followed by incubation with XTT for 4 h. The assay is based on the ability of metabolic active cells to reduce the tetrazolium salt XTT to orange colored compound of formazan. The intensity of the dye is proportional to the number of metabolically active cells. The concentration at which 50% cells remain viable, ID50, is shown in Table 1 for several compounds of the invention.

[2] = system: primary vascular smooth muscle (VSM) cells derived from rat aorta; test: Cell viability (XTT) of VSM cells; assay type: cell-based; settings: 24 h incubation with compound, then XTT 4 h; read-out: ID50 VSM cells
Method: as §1, §2
as §3, with “The concentration at which 50% cells remain viable, ID50, is shown in Table 1 for several compounds of the invention.” left out

[3] = system: human umbilical vein endothelial cells; test: Cell viability (XTT) of endothelial cells; assay type: cell-based; settings: 24 h incubation with compound, then XTT 4 h; read-out: ID50 Endothelial cells
Method: as §1, §2
as §3, with “The concentration at which 50% cells remain viable, ID50, is shown in Table 1 for several compounds of the invention.” left out

[4] = system: HT29 human colon carcinoma cells; test: Viability of HT29 human colon carcinoma cells; assay type: cell-based; settings: 24 h incubation; read-out: ID50 HT29-colon carcinoma
Method: as §1, §2
HT29 human carcinoma cells were incubated for 24 h with compounds of the invention.

p38-MAPK [5] = test: Western immunoblot, p38-MAPK phosphorylation in VSM cells; assay type: cell-based, rat; settings: 0.5-20 μM, 20 min, 37° C., FIG. 1A
Method: (§4) Stimulation of ERKs and p38-MAPKs with compounds of the invention was characterized in VSM cells and cardiomyocytes. […] As a positive control for ERKs activation, the cells were incubated with 10^−7M EGF for 5 minutes. […] Therefore, this compound and other derivates may be used as selective compounds to inhibit or stimulate one of the members in the MAPKs-signaling pathway.

ERKs [6] = settings: HT29 cells, 5-25 μM, 20 min to 4 h, FIG. 3A
P38 pathway = test: Western immunoblot, p38 phosphorylation in BL6-8 melanoma cells; assay type: cell-based; settings: FIG. 3B
STAT3 = test: Western immunoblot, STAT3 phosphorylation in VSM cells; settings: VSM cells activated with AVP, FIG. 2
Method: (§6) Confluent cell monolayers were growth-arrested in serum-free medium for 24 h prior to treatment with the compounds in this patent. Cells were washed twice with medium, scraped, resuspended in lysis buffer (10% glycerol, 25 mM NaCl, 0.1% Triton X-100, 50 mM NaF, 10 mM Na-pyrophosphate, 2 mM EGTA, 2 mM DTT, 20 mM p-nitro-phenylphosphate, 25 mM Tris-HCl, 2 mM Na2VO4, 10 μM PMSF, 10 μg/ml Leupeptin), and the lysate was centrifuged at 14,000 rpm for 20 min. Samples were separated by SDS-polyacrylamide gel electrophoresis, transferred to nitrocellulose membrane, and blocked for 1 h at room temperature with 5% nonfat milk in TBS-T buffer (20 mM Tris, 500 mM NaCl, and 0.01% Tween 20). The membrane was then incubated overnight at 4° C. with an appropriate dilution of anti-phospho-ERKs or anti-total ERK, anti-phospho-p38 or anti-phospho-JNK, followed by incubation for 1 h with the appropriate horseradish peroxidase-conjugated secondary antibody. The immunoblot signal was visualized through enhanced chemiluminescence.

ERKs survival pathway = test: Western immunoblot, ERKs phosphorylation in BL6-8 melanoma cells; settings: FIG. 3B
Method: as §6
The cells were starved for 24 h in serum free medium, incubated with the selected compound (5-25 μM) for 20 min to 4 h (dependent on the compound examined), 37° C., harvested, centrifuged and suspended in the lysis buffer. The MAPKs stimulation was estimated using the western immunoblot analysis as described above.

ERKs [7] = test: Western immunoblot, ERKs phosphorylation in cardiomyocytes; assay type: cell-based, rat; settings: 0.5-10 μM, 20 min, 37° C., FIG. 1B
Method: (§5) The effect of the compounds of formula I on ERKs and p38-MAPK was checked in cardiomycetes. […] Stimulation of the MAPKs members by compounds of the invention was compared with the stimulation by the growth factor Ang (Angiotensin II, 10 nM, 10 min), which is known as MAPKs stimulator in cardiomyocytes. […] ERKs and p38 were related to the total amount of ERKs proteins in the sample. […] As explained, the ERKs signaling pathway participate in the cell survival and proliferation. Administering the compounds stimulating this pathways after myocardial infarction may accelerate cell survival of the cardiomyoctes; alternatively, said compounds may be administered as a preventing drug before the injury occurs in risk cases.

p38-MAPK [8] = test: Western immunoblot, p38-MAPK phosphorylation in cardiomyocytes; assay type: cell-based, rat; settings: 0.5-10 μM, 20 min, 37° C., FIG. 1B
Method: as §5

ERKs [9] = test: Western immunoblot, ERKs phosphorylation in VSM cells; assay type: cell-based, rat; settings: 0.5-20 μM, 20 min, 37° C., FIG. 1A
Method: as §4

[10] = system: HT29 human colon carcinoma cells; test: Apoptosis of HT29 cells (DNA fragmentation, PI staining); assay type: cell-based; settings: 48 h incubation
Method: The various cell types were incubated with a compound of formula I (0.3-25 μM) for 24-48 h. Untreated cells were served as control. After trypsinization, cells were centrifuged for 5 min, 1500 g and resuspended in DMEM medium contains 10% FCS. Sample of the cells (25 μl) was added to 2 μl mixture of (5 μg/ml) ethidium bromide and (5 μg/ml) acridine orange in PBS. Sample of the stained cells was examined under fluorescent microscope. Ethidium bromide binds to the DNA of damaged cells and stains it orange, while acridine orange stains the nucleus in green. Apoptotic cells appear as nuclei with orange staining of fragmented DNA.
HT29 cells, either untreated or treated 48 h with a compound of formula I (25 μM), after trypsinization, were collected and centrifuged for 5 min, 800 g. The pellet was resuspended with PBS and centrifuged again. 60 μl of PBS was added to the pellet followed by addition of 360 μl of ice-cold 80% ethanol and incubating overnight at −20° C. The cells were thawed on ice and centrifuged for 5 min 800 g 4° C. […] Analysis was carried out by fluorescence-activated flow cytometer (FACSscan).
Apoptosis was evaluated following incubation of 48 h with compound TW 69 using DNA fragmentation method (ethidium bromide staining) and PI (propidium iodide) staining assay, as described above. […]

cardiomyocytes = test: Cardiomyocyte viability (XTT) following incubation with EH48; assay type: cell-based, rat; settings: cardiomyocytes starved 16-18 h, compound 24 h, XTT 4 h, FIG. 5
Method: as §2
The viability of the cells was measured as described above. Briefly, cells were starved for 16-18 h followed by incubation with the compound of formula II (EH48) for 24 h and incubation with XTT for an other 4 h. The assay is based on the ability of metabolic active cells to reduce the tetrazolium salt XTT to orange colored compound of formazan. The intensity of the dye is proportional to the number of metabolically active cells.

[11] = system: cardiomyocytes in rat heart; test: Cardiomyocyte proliferation following direct injection in-vivo (PCNA staining); settings: direct injection into rat heart, 0.5, 5 and 50 microM, three days, versus saline
Method: Proliferation of cardiomyocytes was evaluated in-vivo following direct injection of EH48 in three concentrations (0.5, 5 and 50 microM) into rat heart. Three days after injections rats were sacrificed and the hearts were fixed with formaldehyde 4%. Slides of 5 micron were stained with the DNA specific marker PCNA. Only cells with morphology of cardiomyocytes (large cells with striation) that expressed the PCNA in the nucleus (brown staining) were considered as proliferate cardiomyocytes (FIG. 6A, arrows). The number of stained cells in each treatment was evaluated compared to control (saline injected) rats (FIG. 6B).

SMILES | IC50 [1] | injury of cardiomyocytes at concentrations killing VSM cells [1] | IC50 [2] | IC50 [3] | IC50 [4] | stimulation of p38-MAPK signaling (p38-MAPK [5]) | stimulation of ERKs signaling pathway (ERKs [6]) | stimulation of P38 pathway (P38 pathway) | inhibition of STAT3 phosphorylation (STAT3) | stimulation of ERKs survival pathway (ERKs survival pathway) | stimulation of ERKs signaling pathway (ERKs [7]) | stimulation of p38-MAPK signaling pathway (p38-MAPK [8]) | stimulation of ERKs signaling (ERKs [9]) | acceleration of apoptotic response [10] | XTT dye intensity (cell survival and viability) (cardiomyocytes) | survival and proliferation of cardiomyocytes in-vivo (PCNA-stained cells) [11]
O=C1C(Nc2ccc(O)cc2)=C(N2CCCC2)C(=O)c2ccccc21 [TW96, 2-pyrrolidine-3-(p-hydroxy-phenylamino)-1,4-naphthoquinone] | 400 nM | did not injure the cardiomyocytes at concentrations killing VSM cells | 200 nM | 500 nM | 500 nM | stimulates mostly the P38-MAPK | without significantly influencing the ERKs signaling pathway | specifically stimulate the P38 pathway | strong inhibitor of STAT3 phosphorylation | without stimulating the ERKs survival pathway |  |  |  |  |  | 
Cc1ccc(NC2=C(N3CCCC3)C(=O)c3ccccc3C2=O)cc1 [TW85, 2-pyrrolidine-3-(p-methylphenylamino)-1,4-naphthoquinone] | > 20000 nM |  | 3600 nM | 800 nM | 3500 nM |  |  |  |  |  | stimulates the ERKs signaling pathway; also recorded: induced the formation of phosphorylated ERKs protein | not the p38-MAPK signaling pathway; also recorded: without inducing the formation of phosphorylated p38 protein |  |  |  | 
Cc1ccc(NC2=C(Cl)C(=O)c3ccccc3C2=O)cc1 [TW69, 2-chloro-3-(p-methylphenylamino)-1,4-naphthoquinone] |  | did not injure the cardiomyocytes at concentrations killing VSM cells |  |  |  | stimulate both ERKs and p38-MAPKs signaling |  |  |  |  | stimulate mainly the ERKs signaling pathway; also recorded: induced the formation of phosphorylated ERKs protein | without significantly influencing the p38-MAPK signaling pathway; also recorded: without inducing the formation of phosphorylated p38 protein | stimulate both ERKs and p38-MAPKs signaling | 30% |  | 
COC(=O)[C@@H]1CCCN1C1=C(Cl)C(=O)c2ccccc2C1=O [EH48, 2-chloro-3-(L-prolinemethyl ester)-1,4-naphthoquinone] |  |  |  |  |  |  |  |  |  |  |  |  |  |  | increase in cell survival and viability; also recorded: XTT elevation | positive in-vivo effect
